# Values of other authors in PMC3420346 (Bioorganic & medicinal chemistry, 2012).
# How the values were obtained:
# [1] = compared with related 9-riboside derivatives
structure (smiles),measurement,setting,value
"CNc1nc(I)nc2c1ncn2[C@H]1C[C@H](OP(=O)(O)O)[C@]2(COP(=O)(O)O)C[C@H]12 [Compound 1, (1′R,2′S,4′S,5′S)-4-(2-iodo-6-methylamino-purin-9-yl)-1-[(phosphato)-methyl]-2-(phosphato)-bicyclo[3.1.0]hexane]",Resistance to degradation,[1],more resistant to degradation than related 9-riboside derivatives
same,Reduction of thrombus formation in vivo,thrombus formation,effective in reducing thrombus formation in vivo
